“And” between values parts separate entries of the source, which are not always exact repeats. Identical values can stand only once.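 1) Cells in 96-well plates. 2) Compound, 48 h, 5 concentrations. 3) Linear interpolation between surrounding doses. 4) Unreached endpoint = highest concentration. GI50 marks 50% less growth. Definition used: TGI = concentration required for complete inhibition of growth.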 Bounds are passed on as bounds.

Holding throughout (test): NCI tumour cell line growth inhibition, 48 h
For assay [1], the system named is SNB-78 CNS.
In assay [2] the test system is RXF-631 renal.
Assay [3] relates to DMS 273 small cell lung.
The test system of assay [4] is HOP-18 NSCLC.
Assay [5] concerns DMS 114 small cell lung.
Assay [6] deals with DLD-1 colon.
For assay [7], the system named is LXFL 529 NSCLC.
For assay [8], the system named is M19-MEL melanoma.
The test system of assay [9] is MDA-N.
Assay [10] has as its system P388 leukemia.
Assay [11] relates to SN12K1 renal.
Assay [12] deals with P388/ADR leukemia.

With `COc1ccc(/C=C2\CCC(CN(C)C)C2=O)cc1OC` (stereo unspecified), the TGI in assay [1] was 66.4 µM; in assay [2], 16.3 µM; in [3], 29.8 µM; in assay [4], 35.1 µM; in assay [5] it was 34.3 µM; in assay [6], 8.83 µM. The results for the TGI in assay [7] and in assay [8] were 6.7 µM and 24.4 µM, respectively.

For `COc1cc(/C=C/C(=O)c2sc(NNC(C)=O)nc2C)ccc1O`, the TGI in assay [1], in [2], in [3], in [4], in assay [5] and in assay [6] was more than 100 µM each time.

On to `C=C1CCc2occ(C)c2C2C1C1=C(CC(C)C1=O)C1OC12C` (stereo unspecified), for which the TGI in assay [1] was more than 100 µM; in [4], 6.77 µM; in assay [5] it was more than 100 µM; in assay [6], more than 100 µM; in assay [7] it was more than 100 µM; in assay [8], more than 100 µM.

With `C=CCNC(=O)NCCCC(NC(C)=O)C(=O)NCc1ccccc1` (stereo unspecified), the TGI in assay [2], in assay [3], in [4], in assay [7] and in assay [8] was more than 100 µM in each case.

As for `C1CCOC2(CCC3(CC2)OCCCCO3)OC1`, the TGI in assay [1], in assay [3], in assay [4], in assay [5], in assay [6] and in assay [7] was more than 100 µM throughout. This compound came in with a TGI in assay [8] of more than 100 µM.

Take `CC(=O)NC1CC2Oc3ccc(C)cc3C(C)(O2)C1O` (stereo unspecified): the TGI in assay [3], in assay [4], in assay [5], in assay [6] and in assay [8] was more than 100 µM each time.

Take `C=CCC(OCCOCC)c1cc(OCCOCC)ccc1OC` (stereo unspecified): the TGI in [1], in assay [3], in assay [7] and in assay [8] was more than 100 µM each time.

Regarding `C/C=C/C=C/CCCCCCCCCCCCCC1(OC)C=CC(CC(=O)OC)OO1` (stereo unspecified), the results for the GI50 in [2], in assay [6] and in assay [7] were 10.8 µM, 5.79 µM and 4.7 µM, respectively. The TGI is 29.1 µM in assay [2]; 3.03 µM in assay [3]; 23.8 µM in assay [6]; 16.7 µM in assay [7]; 24.1 µM in assay [8].

Take `c1ccc(P(CCP(CCP(c2ccccc2)c2ccccc2)c2ccccc2)CCP(c2ccccc2)c2ccccc2)cc1` (stereo unspecified): in assay [9], the GI50 was > 10 µM and 3.35 µM; the TGI was more than 10 µM.

For the compound `Nc1nc(N)c(N=O)c(OCC2CCCCC2)n1`, in [9], the TGI was found to be 67.4 µM.

In the case of `C[C@@H](NC1CCC[C@H]1O)c1ccccc1` (stereo partly specified), the TGI in assay [1], in assay [3], in assay [4], in assay [5], in assay [6] and in assay [7] was more than 100 µM each time. This compound also had a TGI in assay [8] of more than 100 µM.

Turning to `CSC1(SC2=NCCN2)SC2(NCCN2)S1`, the TGI in assay [9] was determined as 49.1 µM.

Turning to `OCC1OC(n2cnc3c(=S)nc[nH]c32)C(O)C1O` (stereo unspecified), the TGI in assay [1] is more than 2500 µM; in assay [10] it was more than 2500 µM; in assay [3], more than 2310 µM; in assay [9], more than 2500 µM; in assay [11], more than 2500 µM; in [4], more than 2500 µM. In addition, the values for the TGI in assay [5], in assay [12] and in assay [8] were 2490 µM, more than 2500 µM and more than 2500 µM, respectively.

Turning to `O=C1NC2C=CN(Cc3ccccc3)C=C2C(=O)N2CCCC12` (stereo unspecified), the TGI in assay [1], in assay [2], in [3], in [4], in assay [5] and in assay [6] was more than 100 µM each time. Also, the TGI in [7] and in assay [8] was more than 100 µM each time.

Turning to `CC(C)C1COC(c2cccc(C3=N[C@@H](C(C)C)CO3)n2)=N1` (stereo partly specified), the TGI in assay [1], in [2], in assay [3], in assay [5], in assay [6] and in assay [7] was more than 100 µM in each case. Moreover, the TGI in assay [8] was more than 100 µM.

For the compound `CCN(CC)CC(C(=O)Nc1c(C)cccc1C)/C(C)=N\NC(=O)c1ccncc1` (stereo unspecified), the TGI in assay [1], in assay [2], in assay [3], in [4], in assay [5] and in assay [6] was more than 100 µM in each case. Moreover, the TGI in assay [7] and in [8] was more than 100 µM throughout.

Turning to `CCC1CCc2c(OC)ccc(OCC(=O)O)c2C1=O` (stereo unspecified), the TGI in assay [1], in assay [3], in assay [5], in assay [6], in assay [7] and in assay [8] was more than 100 µM throughout.

Regarding `CS/C(=N\c1nccs1)NC(=O)c1cccc(Cl)c1`, the TGI in assay [1], in assay [2], in assay [3], in assay [4], in assay [5] and in assay [6] was more than 100 µM each time. Besides, the TGI in assay [7] and in [8] was more than 100 µM each time.

Values taken from PubChem BioAssay (NCI).
